Experiments:
Assay type in all cases: physicochemical
[1] = Polymorphism screen of benzoate salt (thermal cycling, evaporations, antisolvent additions, cooling), XRPD
Protocol: To render the amorphous and thus remove seeds of the supplied pattern 1 the supplied material was lyophilised in an attempt to render it amorphous. To 2.396 g of the supplied benzoate salt lot 800674000 dioxane (55 ml) and water (5 ml) was added. The mixture was agitated gently and warmed to aid dissolution.
Twenty five of the lyophilised samples were treated with solvent and thermally cycled between ambient and 40° C. with four hours spent under each condition. After three days and solids were isolated by centrifuge filtration and analysed by XRPD.
Twelve samples of the lyophilised material were treated with a minimal volume (ca 0.5 ml) of warm solvent, syringe filtered through a 0.22 micrometre filter and added to a clean HPLC vial and allowed to evaporate at RT. The solvents used and XRPD results following evaporation are detailed in the Table below:
For antisolvent additions thirteen samples of the lyophilised material were dissolved in a small amount of hot solvent (^~0.5 ml). […] A large excess of antisolvent was then added, the vials sealed. After storage at RT overnight, and samples where no solid had been produced were first cooled to 4° C. for ^~24 hrs, and again if no solid was produced, they were cooled to −18° C. Any solids were isolated by centrifuge filtration and analysed by XRPD.
For the cooling experiments twelve samples of the lyophilised material were dissolved in a small amount of hot solvent (^~0.5 ml) and syringe filtered through a 0.22 μm filter into a clean HPLC vial. Samples were allowed to cool to RT, and if no solid was produced to 4° C. and then to −18° C. Solids were isolated by centrifuge filtration and analysed by XRPD.

[2] = Solubility assessments in four different media; conditions: 50 mg per vial; for Observation: 0.5 ml media at 37° C.
Protocol: Solubility assessments of 5-MeO-DMT oxalate, hydrobromide fumarate and benzoate were performed in four different media: […]

[3] = Dissolution rate in simulated nasal fluid (UV-fiber optic dissolution apparatus); conditions: 5 mg in 5 mL simulated nasal fluid, 37° C., 150 RPM
Protocol: The dissolution rate was determined using a method comprising the use of a UV-fiber optic-based dissolution apparatus (one such suitable device is the Rainbow® Dynamic Dissolution Monitor by Pion Inc) and simulated nasal fluid. The simulated nasal fluid comprises 7.45 g/L NaCl, 1.29 g/L KCl, 0.32 g/L CaCl2×2H2O and deionised water.
The dissolution apparatus was set up with a 2 mm probe to measure the dissolution rate. 5 mg of the salt form was transferred into 5 mL of simulated nasal fluid, heated to a constant temperature of 37° C. and stirred at 150 RPM using a crossed stirrer bar. Measurements were taken at 3 s intervals for 130 intervals followed by 60 measurements taken at 10 s intervals for a total time of 16 minutes and 30 s. Detection of dissolution is by UV absorbance.

Structure (SMILES): COc1ccc2[nH]cc(CCN(C)C)c2c1.O=C(O)c1ccccc1 [benzoate salt, 5-MeO-DMT benzoate]
- XRPD Results ([1]; antisolvent addition, solvent DMF, anti solvent PhMe, Cooled −18 C., DJP2202-012-07): No solid
- XRPD Results ([1]; antisolvent addition, solvent EtOH, anti solvent Heptane, Some solid at RT, DJP2202-012-04): Pattern 1
- XRPD Results ([1]; antisolvent addition, solvent EtOH, anti solvent TBME, Cooled −18 C., DJP2202-012-03): No solid
- XRPD Results ([1]; antisolvent addition, solvent IPAC, anti solvent TBME, Cooled −18 C., DJP2202-012-08): No solid
- XRPD Results ([1]; antisolvent addition, solvent MEK, anti solvent Heptane, Some solid at RT, DJP2202-012-10): Pattern 2
- XRPD Results ([1]; antisolvent addition, solvent MEK, anti solvent TBME, Cooled −18 C., DJP2202-012-09): No solid
- XRPD Results ([1]; antisolvent addition, solvent MeCN, anti solvent PhMe, Some solid at RT, DJP2202-012-12): Pattern 4
- XRPD Results ([1]; antisolvent addition, solvent MeCN, anti solvent TBME, Cooled −18 C., DJP2202-012-11): No solid
- XRPD Results ([1]; antisolvent addition, solvent MeOH, anti solvent TBME, Cooled −18 C., DJP2202-012-02): No solid
- XRPD Results ([1]; antisolvent addition, solvent MeOH/water Aw 0.2, anti solvent MeOH, Cooled −18 C., DJP2202-012-01): No solid
- XRPD Results ([1]; antisolvent addition, solvent THF, anti solvent TBME, Cooled −18 C., DJP2202-012-05): No solid
- XRPD Results ([1]; antisolvent addition, solvent dioxane, anti solvent TBME, Cooled −18 C., DJP2202-012-06): No solid
- XRPD Results ([1]; cooling experiment, EtOH, Solid at RT, DJP2202-013-05): Pattern 4
- XRPD Results ([1]; cooling experiment, IPA, Solid at RT, DJP2202-013-06): Pattern 4
- XRPD Results ([1]; cooling experiment, IPAC, Solid at RT, DJP2202-013-10): Pattern 4
- XRPD Results ([1]; cooling experiment, MEK, Solid at RT, DJP2202-013-11): Pattern 2
- XRPD Results ([1]; cooling experiment, MeCN, Solid at RT, DJP2202-013-12): Pattern 4
- XRPD Results ([1]; cooling experiment, MeOH/water Aw 0.2, Cooled −18 C., DJP2202-013-01): Pattern 4
- XRPD Results ([1]; cooling experiment, MeOH/water Aw 0.6, Cooled −18 C., DJP2202-013-02): no solids
- XRPD Results ([1]; cooling experiment, MeOH, Cooled −18 C., DJP2202-013-04): no solids
- XRPD Results ([1]; cooling experiment, THF, Solid at RT, DJP2202-013-07): Pattern 4
- XRPD Results ([1]; cooling experiment, Water, Cooled −18 C., DJP2202-013-03): Pattern 4
- XRPD Results ([1]; cooling experiment, chlorobenzene, Solid at RT, DJP2202-013-09): mix #4 #2
- XRPD Results ([1]; cooling experiment, dioxane, Solid at RT, DJP2202-013-08): Pattern 3
- XRPD Result ([1]; evaporation at RT of lyophilised material from 1-PrOH, DJP2202-010-02): Oil
- XRPD Result ([1]; evaporation at RT of lyophilised material from EtOH, DJP2202-010-05): Oil
- XRPD Result ([1]; evaporation at RT of lyophilised material from IPA, DJP2202-010-06): Pattern 4
- XRPD Result ([1]; evaporation at RT of lyophilised material from IPAC, DJP2202-010-10): Pattern 2
- XRPD Result ([1]; evaporation at RT of lyophilised material from MEK, DJP2202-010-11): Pattern 4
- XRPD Result ([1]; evaporation at RT of lyophilised material from MIBK, DJP2202-010-04): Oil
- XRPD Result ([1]; evaporation at RT of lyophilised material from MeCN, DJP2202-010-12): Pattern 4
- XRPD Result ([1]; evaporation at RT of lyophilised material from THF, DJP2202-010-07): Pattern 4
- XRPD Result ([1]; evaporation at RT of lyophilised material from chlorobenzene, DJP2202-010-09): Pattern 4
- XRPD Result ([1]; evaporation at RT of lyophilised material from dioxane, DJP2202-010-08): Pattern 4
- XRPD Result ([1]; thermal cycle ambient/40° C., 3 days, 1,4-Dioxane 200 μl, isolated after thermal cycle, DJP2202-006-01): Pattern 3
- XRPD Result ([1]; thermal cycle ambient/40° C., 3 days, 1-Propanol 200 μl, isolated after thermal cycle, DJP2202-006-02): Pattern 4
- XRPD Result ([1]; thermal cycle ambient/40° C., 3 days, 2-Butanol 200 μl, isolated after thermal cycle, DJP2202-006-03): Pattern 4
- XRPD Result ([1]; thermal cycle ambient/40° C., 3 days, 2-Me-1-PrOH 200 μl, isolated after thermal cycle, DJP2202-006-21): Pattern 4
- XRPD Result ([1]; thermal cycle ambient/40° C., 3 days, 2-Methyltetrahydrofuran 200 μl, isolated after thermal cycle, DJP2202-006-05): Pattern 4
- XRPD Result ([1]; thermal cycle ambient/40° C., 3 days, 2-Propanol 200 μl, isolated after thermal cycle, DJP2202-006-06): Pattern 4
- XRPD Result ([1]; thermal cycle ambient/40° C., 3 days, Acetone 200 μl, isolated after thermal cycle, DJP2202-006-07): Pattern 4
- XRPD Result ([1]; thermal cycle ambient/40° C., 3 days, Acetonitrile 200 μl, isolated after thermal cycle, DJP2202-006-08): Pattern 4
- XRPD Result ([1]; thermal cycle ambient/40° C., 3 days, Anisole 200 μl, isolated after thermal cycle, DJP2202-006-09): Pattern 4
- XRPD Result ([1]; thermal cycle ambient/40° C., 3 days, Chlorobenzene 200 μl, isolated after thermal cycle, DJP2202-006-10): Pattern 4 +
- XRPD Result ([1]; thermal cycle ambient/40° C., 3 days, Ethanol 150 μl, isolated after thermal cycle, DJP2202-006-11): Pattern 4
- XRPD Result ([1]; thermal cycle ambient/40° C., 3 days, Ethyl acetate 200 μl, isolated after thermal cycle, DJP2202-006-12): Pattern 4
- XRPD Result ([1]; thermal cycle ambient/40° C., 3 days, Formamide 150 μl, isolated after thermal cycle, DJP2202-006-17): Pattern 4
- XRPD Result ([1]; thermal cycle ambient/40° C., 3 days, Isopropyl acetate 200 μl, isolated after thermal cycle, DJP2202-006-13): Pattern 4
- XRPD Result ([1]; thermal cycle ambient/40° C., 3 days, MeOH/water 360/640 Calc Aw 0.821, 200 μl, clear solution, evaporated to solid, DJP2202-006-25): Pattern 1
- XRPD Result ([1]; thermal cycle ambient/40° C., 3 days, MeOH/water 693/307 Calc Aw 0.599, 200 μl, clear solution, evaporated to solid, DJP2202-006-24): Pattern 1
- XRPD Result ([1]; thermal cycle ambient/40° C., 3 days, Methanol 200 μl, clear solution, evaporated to solid, DJP2202-006-14): Pattern 1
- XRPD Result ([1]; thermal cycle ambient/40° C., 3 days, Methylethyl ketone 200 μl, isolated after thermal cycle, DJP2202-006-16): Pattern 4
- XRPD Result ([1]; thermal cycle ambient/40° C., 3 days, Propyl acetate 200 μl, isolated after thermal cycle, DJP2202-006-15): Pattern 4
- XRPD Result ([1]; thermal cycle ambient/40° C., 3 days, Tetrahydrofuran 200 μl, isolated after thermal cycle, DJP2202-006-22): Pattern 4
- XRPD Result ([1]; thermal cycle ambient/40° C., 3 days, iso-Propyl acetate 200 μl, isolated after thermal cycle, DJP2202-006-20): Pattern 4
- pH after addition of 0.5 ml media at 37° C. ([2]; SNF): 6.77
- Observation ([2]; SNF): Clear solution
- pH after addition of 0.5 ml media at 37° C. ([2]; pH 1.2 buffer): 5.28
- Observation ([2]; pH 1.2 buffer): Clear solution
- pH after addition of 0.5 ml media at 37° C. ([2]; pH 4.5 buffer): 5.22
- Observation ([2]; pH 4.5 buffer): Clear solution
- pH after addition of 0.5 ml media at 37° C. ([2]; pH 6.8 buffer): 6.82
- Observation ([2]; pH 6.8 buffer): Clear solution
- dissolution rate [3]: almost instantaneous

Reference: patent US20260209175A1, “PHARMACEUTICALLY ACCEPTABLE 5-METHOXY-N,N-DIMETHYL[…] AND COMPOSITIONS THEREOF” (priority 2022, published 2026)
